Results as given in PMC4992173, “Divergent synthesis and identification of the cellular targets of deoxyelephantopins” (Nature Communications, 2016).

Biological target: T1, PPARγ (Homo sapiens, UniProt P37231)
T1 sequence (P37231 1-505): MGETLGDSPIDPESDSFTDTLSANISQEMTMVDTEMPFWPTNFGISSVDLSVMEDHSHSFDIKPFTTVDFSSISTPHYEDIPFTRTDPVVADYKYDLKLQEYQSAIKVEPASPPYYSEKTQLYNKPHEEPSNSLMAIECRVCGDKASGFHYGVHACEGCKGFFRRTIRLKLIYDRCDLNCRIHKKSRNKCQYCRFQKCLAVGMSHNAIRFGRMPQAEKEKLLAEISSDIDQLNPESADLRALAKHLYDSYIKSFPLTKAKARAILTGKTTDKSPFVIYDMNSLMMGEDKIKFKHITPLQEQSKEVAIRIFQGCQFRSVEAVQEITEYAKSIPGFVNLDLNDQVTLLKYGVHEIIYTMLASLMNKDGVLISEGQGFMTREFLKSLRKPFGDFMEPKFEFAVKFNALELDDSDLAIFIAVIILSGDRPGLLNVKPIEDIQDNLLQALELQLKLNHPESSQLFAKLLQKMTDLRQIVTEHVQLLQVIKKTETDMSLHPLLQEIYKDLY
Assay: IAA-competitive labelling of cysteines on PPARγ (LC-MS/MS)
Format: binding
Settings: 100 µM, 1 h
Source text: Finally, we sought to understand the molecular basis for PPARγ binding by the synthetic analogues of deoxyelephantopin through identification of the precise covalently modified amino acid site. There is literature precedent for oxidized fatty acids containing an α,β-unsaturated ketone to form a covalent bond with a cysteine in the ligand-binding site of PPARγ[53]. More recently, synthetic ligands binding reversibly to a distinct site were identified. […] Bearing in mind that the structurally simplified, and thus less prone to MS/MS fragmentation, probe 23c binds PPARγ as efficiently as 24c (Supplementary Fig. 13), we treated the recombinant nuclear receptor with the former compound, digested the protein and analysed the resulting peptides by LC–MS/MS. […] While zinc fingers respond to oxidative stress through reaction at cysteines[55][56] and have been targeted by small molecules forming disulfide bridges, to the best of our knowledge, deoxyelephantopin is the first example of a small molecule that engages a zinc finger through a Michael addition. The success of Michael acceptors as a cysteine trap in current clinical development of covalent inhibitors points to the privileged reactivity profile of this moiety. Having identified the exact binding site, we then performed covalent docking of 19a using the protein–ligand docking program GOLD. […] Following the docking result, we mutated these two residues, transiently expressed the wild-type and the two PPARγ mutant forms in 293T cells and performed gel-based competitive experiments to determine relative binding affinities for 19a. […] Finally, it is interesting to note that SILAC experiment led to the identification of ZNF346, another zinc finger motif-containing protein. […]
H2O (Buffer A) and 0.1% FA in MeCN (Buffer B). Peptides were eluted into the mass spectrometer at a flow rate of 300 nL/min. over a 240 min. linear gradient (3-35% Buffer B) at 50 °C. Data was acquired in data-dependent mode (top- N = ’ […]
and isotope exclusion was enabled.
MaxQuant analysis. The MS data was analyzed with MaxQuant (V1.5.2.8) and searched against the human proteome (Uniprot, 89,649 entries) and a common list of contaminants (included in MaxQuant). The first peptide search tolerance was set to 20 ppm, 10 ppm was used for the main peptide search and fragment mass tolerance was set to 0.02 Da. The false discovery rate for peptides, proteins and sites identification was set to 1%. The minimum peptide length was set to 6 amino acids and peptide re-quantification, label-free quantification (MaxLFQ) and “ ” were enabled. The minimal number of peptides per protein was set to two. Oxidized methionines and N-terminal acetylation were searched as variable modifications and carbamidomethylation of cysteines was searched as a fixed modification. For SILAC experiments 13C6 L-lysine and 13C6 15N4 L-arginine were set as heavy isotope labels and 12C6 L-lysine and 12C6 14N4 L-arginine as light isotope labels. […]
IAA competition of 23c, 24c and DEP h ARγ. γ
(500 ng in 9 µL PBS) was treated with either 100 µM DEP, 23c, 24c or DMSO (1 µL of 10x stock in DMSO) for one hour. Samples were denatured with 6 M urea in 50 mM NH4HCO3, […]
in the dark. Samples were diluted to 2 M urea with 50 mM NH4HCO3, and digested with trypsin . μ . μ μ 2 for 12 hours at 37 °C. Samples were acidified to a final concentration of 5% acetic acid, desalted over a self-packed C18 spin column and dried. Samples were resuspended in 0.1% FA in water and analyzed by LC-MS/MS (see above). MS data was analyzed in MaxQuant (see above). […]

[1] = peptide NKCQYCR (contains Cys190)

Row | Structure (SMILES) | competition of iodoacetamide labelling of the Cys190-containing tryptic peptide | Ratio compound/DMSO (IAA-labelled peptide) (peptide ASGFHYGVHACEGCK) | Ratio compound/DMSO (IAA-labelled peptide) (peptide CLAVGMSHNAIR) | Ratio compound/DMSO (IAA-labelled peptide) (peptide IFQGCQFR) | Ratio compound/DMSO (IAA-labelled peptide) (peptide LKLIYDRCDLNCR) | Ratio compound/DMSO (IAA-labelled peptide) [1] | Ratio compound/DMSO (IAA-labelled peptide) (peptide TQLYNKPHEEPSNSLMAIECR) | Ratio compound/DMSO (IAA-labelled peptide) (peptide VCGDKASGFHYGVHACEGCK)
1 | C#CCC[C@H](O)[C@H]1C(=C)C(=O)O[C@@H]1c1ccccc1 [23c] | > 75% | 0.79 | 1.14 | 0.63 | 0.83 | 0.25 | 1.52 | 0.68
2 | C#CCC[C@H](OC(=O)C(=C)C)[C@H]1C(=C)C(=O)O[C@@H]1c1ccccc1 [24c] | > 75% | 0.72 | 1.40 | 0.60 | 0.87 | 0.08 | 1.72 | 0.65
3 | C=C(C)C(=O)O[C@H]1CC2=C[C@@H](C/C(C)=C/[C@H]3OC(=O)C(=C)[C@H]13)OC2=O [deoxyelephantopin] | > 75% | 1.05 | 0.94 | 0.73 | 0.96 | 0.00 | 0.94 | 0.81
